Reference: ChEMBL document CHEMBL1121794, “Octanol-physiological buffer distribution coefficients of lipophilic amines by reversed-phase high-performance liquid chromatography and their correlation with biological activity” (J Med Chem, 1981)

Key:
[1] = (§1) Partition coefficient (logD7.4); conditions: octanol/water, pH 7.4
[2] = physchem; conditions: octanol/water
[3] = physchem; conditions: octanol/water; remark: listed apart in the source
[4] = not given; remark: listed apart in the source
[5] = species: Rattus norvegicus
[6] = species: Rattus norvegicus; remark: listed apart in the source
[7] = (§2) logD (measured by HPLC) (as log k'); type: ADME
[8] = not given; remark: listed apart in the source
[9] = as §1; conditions: octanol/water, pH 7.4; remark: listed apart in the source
[10] = not given; remark: listed apart in the source
[11] = physchem; conditions: octanol/water, pH 7.4
[12] = species: Rattus norvegicus; remark: listed apart in the source
[13] = (§3) Partition coefficient (logD) (HPLC); type: physicochemical; conditions: octanol/water
[14] = not given; remark: listed apart in the source
[15] = as §2; type: ADME; remark: listed apart in the source
[16] = not given; remark: listed apart in the source
[17] = not given; remark: listed apart in the source
[18] = not given; remark: listed apart in the source
[19] = as §3; type: physicochemical; conditions: octanol/water; remark: listed apart in the source
[20] = not given; remark: listed apart in the source
[21] = physchem; conditions: octanol/water; remark: listed apart in the source
[22] = physchem; conditions: octanol/water; remark: listed apart in the source
[23] = not given; remark: listed apart in the source
[24] = not given; remark: listed apart in the source
[25] = not given; remark: listed apart in the source
[26] = not given; remark: listed apart in the source
[27] = octanol/water
Description: Partition coefficient (logD, measured by HPLC, log k')

[28] = not given; remark: listed apart in the source
[29] = species: Rattus norvegicus; test: Log (1/ED50) was measured as histamine releasing activity in rat mast cells; log(1/ED50*10e-3).; type: functional
[30] = Dissociation constant (pKa); conditions: octanol/water, pH 7.4
[31] = not given; remark: listed apart in the source
[32] = as §1; type: physicochemical; conditions: octanol/water, pH 7.4
[33] = molecular target: Serum albumin (Bos taurus) (UniProt P02769); test: BSA binding (log K)
[34] = The compound was tested for its ability to inhibit Na+/K+ ATPase in rat brain.; type: tissue-based
[35] = species: Rattus norvegicus; test: Apparent partition coefficient was measured as histamine releasing activity in rat mast cells.
[36] = octanol/water; remark: listed apart in the source
[37] = octanol/water; remark: listed apart in the source
[38] = as §2; type: ADME; remark: listed apart in the source
[39] = not given; remark: listed apart in the source
[40] = species: Rattus norvegicus; test: pKa value was measured by water/octanol using shake-flask method.
[41] = as §2; type: ADME; remark: listed apart in the source
[42] = species: Rattus norvegicus; remark: listed apart in the source
[43] = as §3; type: physicochemical; conditions: octanol/water; remark: listed apart in the source

Row | Structure (SMILES) | logD [1] | Log k' | Log k' [4] | Papp [6] | Log k' [8] | pKa [9] | Log k' [10] | logD [11] | Log k' [15] | Log k' [17] | Log k' [20] | Log k' [23] | Log k' [27] | other results
1 | CC(=O)c1ccc2c(c1)N(CCCN1CCN(CCO)CC1)c1ccccc1S2 [ACETOPHENAZINE] | 2.62 | 1.301 | 0.808 | – | – | – | – | – | – | – | – | – | – | logD [2]: 0.366; logD [3]: 0.728; Log 1/ED50 [5]: 2.12
2 | CN(C)CCC=C1c2ccccc2CCc2ccccc21 [AMITRIPTYLINE] | 2.83 | 1.641 | – | 2.3 | 1.264 | 9.4 | 1.279 | 2.5 | 1.214 | – | – | – | – | Log k' [7]: 0.753; Log 1/ED50 [12]: 1.85; logD [13]: 2.83; Log k' [14]: 1.419
3 | COc1ccccc1 [ANISOLE] | 2.09 | – | 0.885 | – | 0.381 | – | – | – | – | 0.332 | 0.928 | – | – | logD [16]: 2.086; Log k' [18]: 0.264; logD [13]: 0.353; logD [19]: 0.872
4 | CN(C)CCC(c1ccc(Cl)cc1)c1ccccn1 (stereo unspecified) [CHLORPHENIRAMINE] | 1.38 | 0.262 | 0.074 | – | -0.329 | – | – | – | – | 0.007 | 0.273 | – | – | Log k' [18]: 0.334; logD [13]: 0.466; logD [19]: 0.466; logD [21]: 1.53; logD [22]: 1.51
5 | CN(C)CCCN1c2ccccc2Sc2ccc(Cl)cc21 [CHLORPROMAZINE] | 3.221 | – | – | 2.92 | – | – | 1.751 | 3.17 | 1.911 | 1.656 | 2.144 | 1.911 | 2.061 | Log k' [24]: 1.086; Log k' [25]: 2.144; Log k' [26]: 1.667; Log k' [28]: 1.632
6 | CN(C)CC/C=C1/c2ccccc2Sc2ccc(Cl)cc21 [CHLORPROTHIXENE] | – | – | – | 2.67 | – | – | – | – | 2.142 | – | – | – | – | Histamine release [29]: 2.57
7 | CN(C)CCCN1c2ccccc2CCc2ccc(Cl)cc21 [CLOMIPRAMINE] | 3.24 | 2.072 | 1.593 | 2.8 | 1.041 | – | – | – | – | – | – | – | – | pKa [30]: 9.5; Log k' [18]: 1.479; Log 1/ED50 [5]: 2.22
8 | CN(C)CCC=C1c2ccccc2COc2ccccc21 [DOXEPIN] | 2.22 | – | – | – | – | – | 0.778 | 2.2 | – | 0.632 | 1.115 | 1.025 | 1.044 | Log k' [31]: 1.086; Log k' [24]: 0.33; logD [32]: 2.22; logD [21]: 2.36; Log k' [14]: 1.025; logD [22]: 2.32; Log k' [26]: 0.642; Log k' [28]: 0.886
9 | CNCCC=C1c2ccccc2CCc2ccccc21 [NORTRIPTYLINE] | 1.98 | – | – | 1.8 | – | 9.73 | – | – | – | – | – | – | 1.162 | Log k' [24]: 0.349; Log 1/ED50 [12]: 1.76; logD [21]: 2.04; logD [22]: 2.01; Log k' [28]: 0.899
10 | OCCN1CCN(CCCN2c3ccccc3Sc3ccc(Cl)cc32)CC1 [PERPHENAZINE] | – | 2.287 | 1.749 | – | – | 7.8 | – | – | – | – | – | – | – | Log K [33]: 3.57; Activity [34]: 0.09; Papp [35]: 2.95; logD [36]: 1.1; Log 1/ED50 [5]: 2.63; logD [37]: 1.473
11 | CN1CCN(CCCN2c3ccccc3Sc3ccc(Cl)cc32)CC1 [PROCHLORPERAZINE] | – | 2.767 | – | 2.4 | 1.571 | 8.1 | – | – | 2.292 | – | – | – | – | BSA binding [33]: 3.83; Log 1/ED50 [12]: 2.75; Log k' [18]: 1.907
12 | CN(C)CCCN1c2ccccc2Sc2ccccc21 [PROMAZINE] | 2.48 | – | – | 2.15 | – | 9.42 | 1.117 | 2.54 | 1.47 | 0.927 | 1.351 | 1.465 | 1.378 | Log K [33]: 3.21; Log k' [31]: 1.345; Log k' [24]: 0.505; Log 1/ED50 [12]: 2.05; Log k' [26]: 0.907; Log k' [28]: 1.252
13 | CC(CN1c2ccccc2Sc2ccccc21)N(C)C (stereo unspecified) [PROMETHAZINE] | 2.849 | – | – | – | – | – | 1.271 | 2.79 | 1.512 | 1.172 | 1.67 | 1.512 | 1.595 | Log k' [38]: 1.252; Log k' [39]: 1.176; Activity [34]: -0.37; Log k' [25]: 1.669; pKa [40]: 9.4; Log k' [41]: 0.757; Log 1/ED50 [5]: 1.82
14 | CCN(CC)CCOc1ccc2c(c1)C(=O)c1cc(OCCN(CC)CC)ccc1-2 [TILORONE] | 1.47 | – | – | – | – | – | 0.325 | 1.31 | – | 0.007 | 0.234 | 0.701 | 0.183 | Log k' [38]: 0.051; Log k' [39]: 0.113; logD [32]: 1.47; logD [21]: 1.44; Log k' [25]: 0.229; Log k' [14]: 0.701; logD [22]: 1.48; Log k' [41]: -0.412
15 | CN1CCN(CCCN2c3ccccc3Sc3ccc(C(F)(F)F)cc32)CC1 [TRIFLUOPERAZINE] | – | 3.076 | 2.58 | – | – | 8.1 | – | – | – | – | – | – | – | Papp [42]: 3.9; logD [43]: 1.96; Activity [34]: 1.69; logD [13]: 1.77
